How the values were obtained:
tankyrase 1 (TNKS1) = biological target: T1, tankyrase 1 (TNKS1) (Homo sapiens, UniProt O95271); assay: Tankyrase inhibitory activity test (ELISA, auto-poly(ADP-ribosyl)ation), tankyrase 1; format: biochemical; conditions: Flag tagged tankyrase 1 (1,024-1,327aa, SAM+PARP); read-out: TNKS1 (inhibitory activity against tankyrase 1, IC50)
T1 construct: tankyrase 1 (1,024-1,327aa, SAM+PARP); made in house; host or cells: cell-free protein expression system
Experimental: (§1) The enzymatic activity of tankyrase 1 and the enzymatic activity of tankyrase 2 were measured by the ELISA method based on assessment of auto-poly(ADP-ribosyl)ation to evaluate the tankyrase inhibitory activity of the compound prepared in each of Examples (test compound) (inhibitory activity against tankyrase 1 (TNKS1) and inhibitory activity against tankyrase 2 (TNKS2)). First, Flag tagged tankyrase 1 (1,024-1,327aa, SAM+PARP) and tankyrase 2 (613-1,116aa, ANK5+SAM+PARP) were synthesized with a cell-free protein expression system, and diluted with a Tris buffer solution (50 mM Tris-HCl (pH 8.0), 150 mM NaCl, 10% glycerol). 50 μL of the diluted tankyrase 1 or tankyrase 2 was added to a plate with an anti-FLAG M2 monoclonal antibody immobilized thereon (Anti-FLAG High-Sensitivity M2-Coated Plate) (Sigma-Aldrich), and the plate was left standing overnight at 4° C. Thereafter, the plate was washed four times with a PBS (PBST) buffer containing 0.1% Triton X-100. For Example 84, the Anti-FLAG High-Sensitivity M2-Coated Plate was replaced by an immunoplate (Thermo Fisher Scientific), tankyrase 1 or tankyrase 2 was immobilized on the immunoplate, and the immunoplate was then blocked with Blocking One (nacalai tesque), then washed with a PBS (PBST) buffer, and used as the following plate.
(§2) Subsequently, the test compound diluted with an assay buffer (50 mM Tris-HCl (pH 8.0), 4 mM MgCl2, 0.2 mM DTT) (DMSO was used as a control) was added to each well of the plate, and the plate was left standing at room temperature for 10 minutes. Thereafter, a biotin-labeled NAD solution (225 μM NAD, 25 μM 6-Biotin-17-NAD (Travigen, Inc.)) was added and mixed as a donor substrate, and the mixture was reacted at 30° C. for 45 minutes. To blank wells was added distilled water instead of the biotin-labeled NAD solution. After the reaction, the plate was washed with a PBST buffer four times. Thereafter, HRP (horseradish peroxidase)-labeled streptavidin (Travigen, Inc.) was diluted with a PBS buffer by 1,000 times, and added to each well, and the mixture was reacted at room temperature for 20 minutes. The plate was washed with a PBST buffer four times, a chemiluminescent substrate solution TACS-Sapphire (Travigen, Inc.) was then added to each well, the mixture was reacted at room temperature for 20 minutes, and the chemiluminescence intensity was measured using a chemiluminescence measuring apparatus. For Example 84, the streptavidin was diluted by 5,000 times, the chemiluminescent substrate solution TACS-Sapphire was replaced by an ELISA POD substrate TMB solution easy (nacalai tesque), the mixture was reacted at room temperature for 30 minutes, and the chemiluminescence intensity was measured using a chemiluminescence measuring apparatus.
(§3) The residual enzymatic activity in the presence of the test compound was determined from the following expression. On the basis of the residual enzymatic activity at each of multiple concentrations of the test compound, the enzyme inhibitory activity was calculated in terms of a 50%-inhibition concentration (IC50 value) using data analysis software Origin (LightStone Corp.). Residual activity (%)={(chemiluminescence intensity with test compound added)−(chemiluminescence intensity of blank)}/{(chemiluminescence intensity of control)−(chemiluminescence intensity of blank)}

tankyrase 2 (TNKS2) = biological target: T2, tankyrase 2 (TNKS2) (Homo sapiens, UniProt Q9H2K2); assay: Tankyrase inhibitory activity test (ELISA, auto-poly(ADP-ribosyl)ation), tankyrase 2; format: biochemical; conditions: Flag tagged tankyrase 2 (613-1,116aa, ANK5+SAM+PARP); read-out: TNKS2 (inhibitory activity against tankyrase 2, IC50)
T2 construct: tankyrase 2 (613-1,116aa, ANK5+SAM+PARP); made in house; host or cells: cell-free protein expression system
Experimental: as §1, §2, §3

[1] = tested on: human colorectal cancer cell line COLO-320DM; assay: Cell proliferation inhibitory activity test (Celltiter-Glo); format: cell-based; conditions: COLO-320DM cells, 96 hours
Experimental: The cell proliferation inhibitory activity of the compound, which had been prepared in each of Examples, against the human colorectal cancer cell line COLO-320DM was evaluated by Celltiter-Glo Luminescent Cell Viability Assay (Promega Corporation; G7573). COLO-320DM cells were cultured in RPMI-1640 medium containing 2 mM glutamine (Wako Pure Chemical Industries, Ltd; 189-02025) supplemented with 10% fetal bovine serum. The cultured cells were washed with PBS, and then dissociated with trypsin/EDTA, and a cell solution with 3×10^4 cells/mL was prepared.
Subsequently, the cell solution was seeded in a 96-well microplate (Thermo/Nunc Company; 136101) in an amount of 70 μL per well, and cultured overnight under the condition of 37° C. and 5% CO2. Next day, a test compound solution obtained by diluting the test compound (DMSO solution) with a cell culture medium (final concentration of DMSO was 1%) was added in an amount of 10 μL per well, and the mixture was reacted under the condition of 37° C. and 5% CO2 for 96 hours (a 1% DMSO solution was used as a control). Thereafter, a Celltiter-GloLuminescent Cell Viability Assay reagent (Promega Corporation; G7573) was added in an amount of 80 μL per well, the mixture was stirred with a shaker for 2 minutes while light was blocked with an aluminum foil, and the mixture was incubated at room temperature for 10 minutes.
Thereafter, a luminescence signal was measured with a luminometer (Biotech Company; Synergy). The ratio of cell proliferation in each compound addition group to cell proliferation in a control group containing no test compound solution, where cell proliferation in the control group is 100%, was calculated and the value of a compound concentration necessary for suppressing the amount of residual cells to 50% of that in the control (GI50) was calculated as the cytostatic activity. […] An unevaluated test compound was designated as “NT”.

T1 sequence (O95271 1024-1327): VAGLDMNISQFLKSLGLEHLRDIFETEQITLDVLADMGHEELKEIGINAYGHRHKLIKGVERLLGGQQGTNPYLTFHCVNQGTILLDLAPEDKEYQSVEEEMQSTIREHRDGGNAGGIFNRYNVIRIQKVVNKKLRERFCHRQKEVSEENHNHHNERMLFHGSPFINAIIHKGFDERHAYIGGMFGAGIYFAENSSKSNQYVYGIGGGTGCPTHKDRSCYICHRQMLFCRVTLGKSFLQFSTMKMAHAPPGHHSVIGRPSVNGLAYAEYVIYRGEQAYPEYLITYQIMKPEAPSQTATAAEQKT

| SMILES | IC50 (tankyrase 1 (TNKS1)) [nM] | IC50 (tankyrase 2 (TNKS2)) [nM] | GI50 [1] [nM] |
| --- | --- | --- | --- |
| COC(=O)c1ccc(-c2n[nH]cc2C2NC(=O)c3ccccc3N2C)cc1 (stereo not drawn) [Example 1, Methyl 4-[4-(1-methyl-4-oxo-2,3-dihydroquinazolin-2-yl)-1H-pyrazol-5-yl]benzoate] | 20 to 50 | 5 to 20 | – |
| CN1c2ccccc2C(=O)NC1c1c[nH]nc1-c1ccc(NC(=O)c2ccccc2)cc1 (stereo not drawn) [Example 4, N-[4-[4-(1-Methyl-4-oxo-2,3-dihydroquinazolin-2-yl)-1H-pirazol-3-yl]phenyl]benzamide] | 5 to 20 | < 5 | ≥ 10000 |
| CN1c2ccccc2C(=O)NC1c1c[nH]nc1-c1cccc(NC(=O)Nc2ccccc2)c1 (stereo not drawn) [Example 5, 1-[3-[4-(1-Methyl-4-oxo-2,3-dihydroquinazolin-2-yl)-1H-pyrazol-3-yl]phenyl]-3-phenylurea] | 5 to 20 | 5 to 20 | ≥ 10000 |
| CN1CCN(c2ccc(-c3ccc(-c4n[nH]cc4C4NC(=O)c5ccccc5N4C)cc3)cc2)CC1 (stereo not drawn) [Example 6, 1-Methyl-2-[5-[4-[4-(4-methylpiperazin-1-yl)phenyl]phenyl]-1H-pirazol-4-yl]-2,3-dihydroquinazolin-4-one] | 20 to 50 | 5 to 20 | 1000 to 10000 |
| CN1c2ccccc2C(=O)NC1c1n[nH]nc1-c1ccc(-c2ccc(N3CCOCC3)cc2)cc1 (stereo not drawn) [Example 7, 1-Methyl-2-[4-[4-(4-morpholin-4-ylphenyl)phenyl]-2H-1,2,3-triazol-5-yl]-2,3-dihydroquinazolin-4-one] | 20 to 50 | 5 to 20 | ≥ 10000 |
| CCOc1ccc(-c2n[nH]nc2[C@H]2NC(=O)c3cccc(C)c3N2)cc1 [Example 8, (2R)-2-[5-(4-Ethoxyphenyl)-2H-1,2,3-triazol-4-yl]-8-methyl-2,3-dihydro-1H-quinazolin-4-one] | < 5 | < 5 | < 1000 |
| CN1c2ccccc2C(=O)NC1c1c[nH]nc1-c1ccc(OCc2ccccc2)cc1 (stereo not drawn) [Example 11, 1-Methyl-2-[3-(4-phenylmethoxyphenyl)-1H-pyrazol-4-yl]-2,3-dihydroquinazolin-4-one] | 5 to 20 | < 5 | ≥ 10000 |
| CCN1c2ccccc2C(=O)NC1c1c[nH]nc1-c1ccc(OC)cc1 (stereo not drawn) [Example 12, 1-Ethyl-2-[3-(4-methoxyphenyl)-1H-pyrazol-4-yl]-2,3-dihydroquinazolin-4-one] | 20 to 50 | 5 to 20 | 1000 to 10000 |
| CCN1c2ccccc2C(=O)NC1c1c[nH]nc1-c1ccc(C(=O)OC)cc1 (stereo not drawn) [Example 13, Methyl 4-[4-(1-ethyl-4-oxo-2,3-dihydroquinazolin-2-yl)-1H-pyrazol-3-yl]benzoate] | 20 to 50 | 20 to 50 | ≥ 10000 |
| COc1ccc(-c2n[nH]cc2C2NC(=O)c3ccccc3N2CC2CC2)cc1 (stereo not drawn) [Example 14, 1-(Cyclopropylmethyl)-2-[5-(4-methoxyphenyl)-1H-pyrazol-4-yl]-2,3-dihydroquinazolin-4-one] | 20 to 50 | 20 to 50 | ≥ 10000 |
| CN1c2ccccc2C(=O)NC1c1c[nH]nc1-c1ccc([N+](=O)[O-])cc1 (stereo not drawn) [Example 16, 1-Methyl-2-[3-(4-nitrophenyl)-1H-pyrazol-4-yl]-2,3-dihydroquinazolin-4-one] | 20 to 50 | 20 to 50 | ≥ 10000 |

Now from value to compound:

| IC50 (tankyrase 1 (TNKS1)) [nM] | IC50 (tankyrase 2 (TNKS2)) [nM] | GI50 [1] [nM] | SMILES |
| --- | --- | --- | --- |
| < 5 | < 5 | – | CN1c2ccccc2C(=O)NC1c1c[nH]nc1-c1ccc(C(=O)O)cc1 (stereo not drawn) [Example 2, 4-[4-(1-Methyl-4-oxo-2,3-dihydroquinazolin-2-yl)-1H-pyrazol-5-yl]benzoic Acid] |
| 5 to 20 | 5 to 20 | ≥ 10000 | CN1c2ccccc2C(=O)NC1c1c[nH]nc1-c1ccc(N)cc1 (stereo not drawn) [Example 3, 2-[3-(4-Aminophenyl)-1H-pyrazol-4-yl]-1-methyl-2,3-dihydroquinazolin-4-one] |
| 20 to 50 | 20 to 50 | – | O=C1NC(c2c[nH]nc2-c2ccccc2)Nc2ccccc21 (stereo not drawn) [Example 9, 2-(3-Phenyl-1H-pyrazol-4-yl)-2,3-dihydro-1H-quinazolin-4-one] |
| 5 to 20 | < 5 | ≥ 10000 | CN1c2ccccc2C(=O)NC1c1c[nH]nc1-c1ccccc1 (stereo not drawn) [Example 10, 1-Methyl-2-(3-phenyl-1H-pyrazol-4-yl)-2,3-dihydroquinazolin-4-one] |
| 5 to 20 | 20 to 50 | ≥ 10000 | COc1cccc(-c2n[nH]cc2C2NC(=O)c3ccccc3N2C)c1 (stereo not drawn) [Example 15, 2-[5-(3-Methoxyphenyl)-1H-pyrazol-4-yl]-1-methyl-2,3-dihydroquinazolin-4-one] |
| 20 to 50 | < 5 | ≥ 10000 | CN1c2ccccc2C(=O)NC1c1c[nH]nc1-c1ccc(-c2ccccc2)cc1 (stereo not drawn) [Example 17, 1-Methyl-2-[3-(4-phenylphenyl)-1H-pyrazol-4-yl]-2,3-dihydroquinazolin-4-one] |
| 20 to 50 | < 5 | ≥ 10000 | CN1c2ccccc2C(=O)NC1c1c[nH]nc1-c1ccc(Oc2ccccc2)cc1 (stereo not drawn) [Example 18, 1-Methyl-2-[3-(4-phenoxyphenyl)-1H-pyrazol-4-yl]-2,3-dihydroquinazolin-4-one] |
| 5 to 20 | < 5 | ≥ 10000 | CN1c2ccccc2C(=O)NC1c1c[nH]nc1-c1ccc(I)cc1 (stereo not drawn) [Example 19, 2-[3-(4-Iodophenyl)-1H-pyrazol-4-yl]-1-methyl-2,3-dihydroquinazolin-4-one] |
| 20 to 50 | 5 to 20 | ≥ 10000 | CN1c2ccccc2C(=O)NC1c1c[nH]nc1-c1cccc(Br)c1 (stereo not drawn) [Example 20, 2-[3-(3-Bromophenyl)-1H-pyrazol-4-yl]-1-methyl-2,3-dihydroquinazolin-4-one] |
| 20 to 50 | 5 to 20 | ≥ 10000 | CN1c2ccccc2C(=O)NC1c1c[nH]nc1-c1ccc(F)cc1 (stereo not drawn) [Example 21, 2-[3-(4-Fluorophenyl)-1H-pyrazol-4-yl]-1-methyl-2,3-dihydroquinazolin-4-one] |
| < 5 | < 5 | ≥ 10000 | CN1c2ccccc2C(=O)NC1c1c[nH]nc1-c1cccc(-c2ccccc2)c1 (stereo not drawn) [Example 22, 1-Methyl-2-[3-(3-phenylphenyl)-1H-pyrazol-4-yl]-2,3-dihydroquinazolin-4-one] |

Reference: patent publication US11566017B2, “Dihydroquinazolinone compound or pharmacologically acceptable salt, and cell growth inhibitor” (RIKEN, priority 2017, dated 2023)
